The values below come from publication PMC8778670, “Identification of an Orally Bioavailable, Brain-Penetrant Compound with Selectivity for the Cannabinoid Type 2 Receptor” (Molecules, 2022).

This test deals with T1, human CB1 receptors (Homo sapiens, UniProt P21554).
T1 construct: expressed in transfected cells; host or cells: CHO cells
Kind of test: Cannabinoid receptor [3H]CP-55,940 displacement binding assay, CB1. To be noted: 1 h; 10 µM compound; CHO cell membranes, 2.5 nM radioligand; read-out: Displacement of [3H]CP-55,940 from CB1. As to the method: The affinities of the compounds for CB1 and CB2 receptors were examined using displacement assays, as previously described. Briefly, cell membranes from CHO cells expressing human CB1 or human CB2 receptors were isolated using differential centrifugation. Test compounds reconstituted in DMSO and were incubated with the isolated membrane in binding buffer (50 mM Tris-HCl, 1 mM EDTA, 3 mM MgCl2, 5 mg/mL BSA, pH 7.4) along with 2.5 nM [^3H]CP-55,940. Total binding was assessed in the presence of equal concentration of DMSO, while non-specific binding was determined in the presence of 10 μM CP-55,940, and background binding was determined in wells lacking membrane. Following incubation at 30 °C for 60 min, the binding reactions were terminated by vacuum filtration through Whatman GF/C filters. The filters were then washed twice with ice-cold buffer (50 mM Tris-HCl, 1 mg/mL BSA). Liquid scintillation cocktail was added to each well and the total tritiated counts per minute were analyzed using a TopCount scintillation counter. Background counts were subtracted from all wells and the percent displacement from total binding was calculated.
The compounds were initially screened at 10 μM concentrations. If they produced at least ±30% displacement of the radioligand, then full competition curves were constructed. Ki values were calculated using GraphPad Prism (San Diego, CA, USA) and Kd values determined using a 1 site fit. All assays were run in technical and biological replicates so that the n = 5–6.

Each structure is given as a SMILES string.

T1 sequence (P21554 whole entry): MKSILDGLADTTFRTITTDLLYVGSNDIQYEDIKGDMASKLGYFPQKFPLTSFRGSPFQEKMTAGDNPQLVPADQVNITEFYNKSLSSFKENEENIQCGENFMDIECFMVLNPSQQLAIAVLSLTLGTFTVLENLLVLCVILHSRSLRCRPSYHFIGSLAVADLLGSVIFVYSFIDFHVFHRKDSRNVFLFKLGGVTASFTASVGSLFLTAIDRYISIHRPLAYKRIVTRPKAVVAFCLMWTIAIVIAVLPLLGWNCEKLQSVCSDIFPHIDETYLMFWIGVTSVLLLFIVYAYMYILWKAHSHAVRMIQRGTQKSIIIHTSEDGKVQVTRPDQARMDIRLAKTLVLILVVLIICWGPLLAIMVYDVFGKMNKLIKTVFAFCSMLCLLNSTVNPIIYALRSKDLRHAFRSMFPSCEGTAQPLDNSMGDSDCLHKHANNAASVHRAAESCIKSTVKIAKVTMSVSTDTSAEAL

Regarding `O=C1c2ccc(Cl)cc2N/C(=N/N=C/c2cc3ccccc3s2)[C@@H]2CCCN12` [Compound 4k], the inhibition at 10 µM is 41.3%.
